From ChEMBL document CHEMBL5143656, “Polyphenolic compounds: Synthesis, assessment of antimicrobial effect and enzymes inhibition against important medicinal enzymes with computational details” (Bioorg Med Chem Lett, 2022)
In brackets after ≈: the same amount, converted by molar mass.

Columns and labels:
Acetylcholinesterase = Acetylcholinesterase (Homo sapiens, UniProt P22303); test: Inhibition of AChE (unknown origin) using […] as substrate incubated for 10 mins by Ellman's method
Staphylococcus aureus = test: Antimicrobial activity Staphylococcus aureus against incubated for 24 hrs; format: functional
Tyrosinase [1] = target: T1, Tyrosinase (Homo sapiens, UniProt P14679); test: Inhibition of tyrosinase (unknown origin) using L-DOPA as substrate incubated for 10 mins
T1 sequence (P14679 whole entry): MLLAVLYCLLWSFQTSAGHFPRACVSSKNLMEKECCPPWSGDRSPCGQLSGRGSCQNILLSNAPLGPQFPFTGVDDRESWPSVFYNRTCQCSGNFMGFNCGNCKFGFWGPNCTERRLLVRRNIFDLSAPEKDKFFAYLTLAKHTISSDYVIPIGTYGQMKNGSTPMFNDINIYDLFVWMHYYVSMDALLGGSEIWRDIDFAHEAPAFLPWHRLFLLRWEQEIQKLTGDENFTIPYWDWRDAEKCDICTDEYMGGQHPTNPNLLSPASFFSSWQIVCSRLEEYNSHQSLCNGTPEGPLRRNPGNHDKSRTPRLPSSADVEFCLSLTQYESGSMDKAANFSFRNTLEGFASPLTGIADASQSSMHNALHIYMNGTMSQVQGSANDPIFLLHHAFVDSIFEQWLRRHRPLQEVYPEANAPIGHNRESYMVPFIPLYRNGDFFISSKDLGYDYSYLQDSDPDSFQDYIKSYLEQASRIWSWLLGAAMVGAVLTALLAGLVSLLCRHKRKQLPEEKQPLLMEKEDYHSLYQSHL

Escherichia coli = test: Antimicrobial activity Escherichia coli against incubated for 24 hrs; format: functional
Cholinesterase = Cholinesterase (Homo sapiens, UniProt P06276); test: Inhibition of BChE (unknown origin) using […] as substrate incubated for 10 mins by Ellman's method
Sequence of Cholinesterase (P06276 whole entry): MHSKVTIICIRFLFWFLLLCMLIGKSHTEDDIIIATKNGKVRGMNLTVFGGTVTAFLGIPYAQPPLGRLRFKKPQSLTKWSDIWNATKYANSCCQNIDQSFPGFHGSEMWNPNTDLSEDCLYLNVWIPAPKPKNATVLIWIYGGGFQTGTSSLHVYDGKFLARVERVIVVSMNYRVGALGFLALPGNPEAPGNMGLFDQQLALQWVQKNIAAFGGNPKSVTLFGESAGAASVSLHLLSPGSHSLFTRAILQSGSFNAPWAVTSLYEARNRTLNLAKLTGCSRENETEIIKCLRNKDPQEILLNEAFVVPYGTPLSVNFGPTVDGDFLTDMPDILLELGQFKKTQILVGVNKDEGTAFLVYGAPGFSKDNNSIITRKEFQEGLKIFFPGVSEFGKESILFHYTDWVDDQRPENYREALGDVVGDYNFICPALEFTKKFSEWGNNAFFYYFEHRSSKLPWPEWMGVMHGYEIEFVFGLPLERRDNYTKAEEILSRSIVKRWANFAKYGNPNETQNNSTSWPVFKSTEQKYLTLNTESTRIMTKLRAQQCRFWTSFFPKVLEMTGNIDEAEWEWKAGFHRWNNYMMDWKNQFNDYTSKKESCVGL

Candida albicans = test: Antimicrobial activity Candida albicans against incubated for 24 hrs; format: functional
Klebsiella pneumoniae = test: Antimicrobial activity Klebsiella pneumoniae against incubated for 24 hrs; format: functional
Cyberlindnera jadinii = test: Antimicrobial activity Candida utilis against incubated for 24 hrs; format: functional; conditions: Williopsis jadinii
PC-3 = test: Cytotoxicity in human PC3 cells assessed as reduction in cell viability incubated for 24 hrs by MTT assay; format: functional, cell-based; conditions: PC-3, 24 h
Enterococcus faecalis = test: Antimicrobial activity Enterococcus faecalis against incubated for 24 hrs; format: functional
Tyrosinase [2] = target: T1, Tyrosinase; test: Inhibition of tyrosinase (unknown origin)

Sequence of Acetylcholinesterase (P22303 whole entry): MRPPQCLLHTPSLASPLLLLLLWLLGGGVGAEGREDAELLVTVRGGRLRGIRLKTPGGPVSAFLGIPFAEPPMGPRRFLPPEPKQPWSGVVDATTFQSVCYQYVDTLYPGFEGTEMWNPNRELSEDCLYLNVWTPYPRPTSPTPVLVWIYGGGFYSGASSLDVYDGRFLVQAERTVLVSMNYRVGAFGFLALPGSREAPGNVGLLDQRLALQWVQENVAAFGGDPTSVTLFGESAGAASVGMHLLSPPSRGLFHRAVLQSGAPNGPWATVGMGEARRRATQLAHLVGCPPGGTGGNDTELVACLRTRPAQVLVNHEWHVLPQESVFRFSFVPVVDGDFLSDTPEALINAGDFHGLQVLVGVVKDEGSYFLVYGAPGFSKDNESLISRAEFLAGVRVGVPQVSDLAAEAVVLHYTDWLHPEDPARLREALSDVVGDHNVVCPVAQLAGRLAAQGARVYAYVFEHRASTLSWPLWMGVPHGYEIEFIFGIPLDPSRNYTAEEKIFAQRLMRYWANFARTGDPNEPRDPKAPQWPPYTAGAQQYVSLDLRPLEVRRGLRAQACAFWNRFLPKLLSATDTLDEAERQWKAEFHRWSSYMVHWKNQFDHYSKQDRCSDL

Row | Structure (SMILES) | IC50 (Acetylcholinesterase) | MIC (Staphylococcus aureus) | IC50 (Tyrosinase [1]) | MIC (Escherichia coli) | IC50 (Cholinesterase) | MIC (Candida albicans) | MIC (Klebsiella pneumoniae) | MIC (Cyberlindnera jadinii) | IC50 (PC-3) | MIC (Enterococcus faecalis) | IC50 (Tyrosinase [2])
1 | CCC(c1ccc(O)c(OC)c1)c1ccc(OC)cc1O (stereo not drawn) | 4.76 µM | 184 µg/mL (≈ 638 µM) | 2.83 µM | 269 µg/mL (≈ 933 µM) | 2.25 µM | 220 µg/mL (≈ 761 µM) | 204 µg/mL (≈ 707 µM) | 249 µg/mL (≈ 864 µM) | 12.2 µg/mL (≈ 42.2 µM) | 112 µg/mL (≈ 389 µM) | 
2 | CCC(c1ccc(O)c(OC)c1)c1cccc(O)c1O (stereo not drawn) | 5.66 µM | 284 µg/mL (≈ 1040 µM) | 2.32 µM | 181 µg/mL (≈ 659 µM) | 2.82 µM | 448 µg/mL (≈ 1630 µM) | 277 µg/mL (≈ 1010 µM) | 467 µg/mL (≈ 1700 µM) | 16.1 µg/mL (≈ 58.9 µM) | 369 µg/mL (≈ 1350 µM) | 
3 | O=c1c(O)c(-c2ccc(O)cc2)oc2cc(O)cc(O)c12 [KAEMPFEROL] |  |  |  |  |  |  |  |  |  |  | 65.1 µM
4 | O=C(/C=C/c1ccc(O)cc1)OC[C@H]1O[C@@H](Oc2c(-c3ccc(O)cc3)oc3cc(O)cc(O)c3c2=O)[C@H](O)[C@@H](O)[C@@H]1O [TILIROSIDE] |  |  |  |  |  |  |  |  |  |  | 78.5 µM
